What was measured:
Trypsin = Trypsin (Homo sapiens, UniProt P07477+P07478+P35030); test: Stability of compound assessed as trypsin (unknown origin) mediated compound hydrolysis at 10 uM incubated for 1 hr by MALDI-MS analysis; assay type: ADME, protein assay
[1] = target: T1, N-terminal Xaa-Pro-Lys N-methyltransferase 1 (Homo sapiens, UniProt Q9BV86); test: Inhibition of recombinant human N-terminal His6-tagged NTMT1 (1 to 222 residues) expressed in Escherichia coli BL21-CodonPlus(DE3)-RIL using GPKRIA peptide and SAM as substrate pre-incubated for 10 mins in presence of SAM followed by substrate addition by SAHH coupled fluorescence assay
T1 sequence (Q9BV86 whole entry): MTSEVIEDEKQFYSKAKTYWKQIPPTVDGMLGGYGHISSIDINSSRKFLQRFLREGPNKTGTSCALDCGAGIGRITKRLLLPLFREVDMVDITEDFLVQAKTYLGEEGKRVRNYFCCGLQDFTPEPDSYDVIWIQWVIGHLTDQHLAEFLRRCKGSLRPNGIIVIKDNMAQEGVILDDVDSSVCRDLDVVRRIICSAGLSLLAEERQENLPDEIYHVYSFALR

[2] = target: T2, N-terminal Xaa-Pro-Lys N-methyltransferase 1 (Homo sapiens) (UniProt Q9BV86); test: Inhibition of NTMT1 in human HCT116 cells assessed as decrease in me3-SPK level at 1 mM incubated for 3 days by Western blot analysis relative to control; assay type: cell-based; conditions: HCT-116, time 3.0 day
T2 sequence (whole entry): T1 sequence (Q9BV86 whole entry)

[3] = target: T2, N-terminal Xaa-Pro-Lys N-methyltransferase 1 (Homo sapiens); test: Inhibition of NTMT1 in human HCT116 cells assessed as decrease in me3-SPK level at 300 uM incubated for 3 days by Western blot analysis relative to control; assay type: cell-based; conditions: HCT-116, time 3.0 day
[4] = target: T2, N-terminal Xaa-Pro-Lys N-methyltransferase 1 (Homo sapiens); test: Inhibition of NTMT1 in human HCT116 cells assessed as decrease in me3-SPK level at 100 uM incubated for 3 days by Western blot analysis relative to control; assay type: cell-based; conditions: HCT-116, time 3.0 day

| Structure (SMILES) | Stabilty (Trypsin) | IC50 [1] [nM] | inhibition [2] [%] | inhibition [3] [%] | inhibition [4] [%] |
| --- | --- | --- | --- | --- | --- |
| CN(C(=O)[C@H](CCCCN)NC(=O)[C@@H]1CCCN1C(=O)Cc1cccc2ccccc12)[C@@H](CCCNC(=N)N)C(N)=O | Stable | – | – | – | – |
| NCCCC[C@H](NC(=O)[C@@H]1CCCN1C(=O)Cc1cccc2ccccc12)C(=O)Nc1cccc2ccccc12 | – | 970 | 47 | 1 | 0 |
| C[C@@H](C(N)=O)N(C)C(=O)[C@H](CCCCN)NC(=O)[C@@H]1CCCN1C(=O)Cc1cccc2ccccc12 | Stable | 580 | 70 | 3 | 0 |
| NCCCC[C@H](NC(=O)[C@@H]1CCCN1C(=O)Cc1cccc2ccccc12)C(=O)Nc1cccc(C(N)=O)c1 | – | 130 | 90 | 57 | 10 |
| NCCCC[C@H](NC(=O)[C@@H]1CCCN1C(=O)Cc1cccc2ccccc12)C(=O)N[C@@H](CCC(=O)O)C(N)=O | – | 4200 | – | – | – |

Reference: ChEMBL document CHEMBL4680379, “Structure-based Discovery of Cell-Potent Peptidomimetic Inhibitors for Protein N-Terminal Methyltransferase 1” (ACS Med Chem Lett, 2021)
